Values quoted from earlier work, collected in patent US11439614B2, “Fish egg extracts, omega-3 lipid-based compositions and uses thereof” (BIOFLASH INC., priority 2017, dated 2022).

Tested on: ADHD symptoms

Compound	Hyperactivity (200 mg daily for 6 months, 75 children with ADHD, vs conventional treatment (Starobat-Hermelin et al, 1997))	Help for children with ADHD (150 mg for 12 weeks alone or 55 mg for 6 weeks with a conventional drug, 440 children)
[Mg+2] [magnesium]	decreased Hyperactivity	–
O=S(=O)([O-])[O-].[Zn+2] [zinc sulfate]	–	could significantly help children with this condition
